Measurements taken from US20260144780A1, “COMPOSITION FOR ENHANCING ADRENOMEDULLIN GENE EXPRESSION” (HOUSE WELLNESS FOODS CORPORATION, priority 2020, published 2026).

Key:
[1] = system: intestinal epithelial cells; details: Non Patent Literature 1, cited from earlier work
human TRPA1 = molecular target: T1, human TRPA1 (Homo sapiens, UniProt O75762); assay: TRP channel agonist activity, intracellular Ca2+ imaging, hTRPA1 stably expressing cell line; assay type: cell-based; details: oxylipin compounds 200 μM and 500 μM, AITC 30 μM, Evaluation 5, FIG. 21
T1 construct: expressed in transfected cells
T1 sequence (O75762 whole entry): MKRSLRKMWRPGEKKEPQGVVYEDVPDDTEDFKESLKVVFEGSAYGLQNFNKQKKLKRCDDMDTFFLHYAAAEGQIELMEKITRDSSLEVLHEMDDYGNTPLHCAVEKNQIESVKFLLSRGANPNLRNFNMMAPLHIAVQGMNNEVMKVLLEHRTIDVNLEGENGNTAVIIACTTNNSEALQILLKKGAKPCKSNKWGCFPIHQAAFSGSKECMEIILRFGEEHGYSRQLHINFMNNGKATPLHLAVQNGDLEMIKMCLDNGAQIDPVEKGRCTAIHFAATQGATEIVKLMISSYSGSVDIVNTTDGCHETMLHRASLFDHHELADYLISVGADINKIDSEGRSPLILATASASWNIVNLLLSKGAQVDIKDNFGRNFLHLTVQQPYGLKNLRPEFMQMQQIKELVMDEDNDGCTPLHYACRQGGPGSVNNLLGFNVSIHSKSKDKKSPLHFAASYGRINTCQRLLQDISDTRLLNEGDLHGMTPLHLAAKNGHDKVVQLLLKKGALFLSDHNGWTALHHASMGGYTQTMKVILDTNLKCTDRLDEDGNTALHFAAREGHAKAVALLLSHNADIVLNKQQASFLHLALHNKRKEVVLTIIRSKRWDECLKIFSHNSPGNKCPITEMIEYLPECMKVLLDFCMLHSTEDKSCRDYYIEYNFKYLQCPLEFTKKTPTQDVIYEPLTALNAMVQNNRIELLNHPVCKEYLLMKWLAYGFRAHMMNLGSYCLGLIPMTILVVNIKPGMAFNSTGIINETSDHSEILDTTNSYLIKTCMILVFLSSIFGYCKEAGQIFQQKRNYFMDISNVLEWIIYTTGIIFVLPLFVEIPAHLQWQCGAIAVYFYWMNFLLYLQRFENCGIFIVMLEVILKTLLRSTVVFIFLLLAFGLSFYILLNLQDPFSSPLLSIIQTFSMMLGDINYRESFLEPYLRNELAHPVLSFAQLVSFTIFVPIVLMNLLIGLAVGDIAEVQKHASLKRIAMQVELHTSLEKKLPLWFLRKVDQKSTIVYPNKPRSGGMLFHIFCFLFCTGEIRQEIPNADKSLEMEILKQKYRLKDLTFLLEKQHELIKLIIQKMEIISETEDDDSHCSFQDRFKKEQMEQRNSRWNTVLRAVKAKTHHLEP
Description: DNA fragments containing nucleotide sequences encoding amino acid sequences of human TRPA1 (Accession No. NM_007332.3) (hereinafter referred to also as hTRPA1), human TRPV1 (Accession No. NM_080704.4) (hereinafter referred to also as hTRPV1) and human TRPM8 (Accession No. NM_024080.5) (hereinafter referred to also as hTRPM8) were inserted into pcDNA5/TO vectors (Invitrogen) to construct an hTRPA1 expression vector, an hTRPV1 expression vector and an hTRPM8 expression vector, respectively.
T-REx™_293 cells (Invitrogen) were cultured in Dulbecco's modified Eagle medium (DMEM, Nacalai Tesque Inc.) containing 10% fetal bovine serum (FBS, Cytiva) up to 60 to 70% confluent growth in the wells of a 6 well plate. T-REx™-293 cells were transfected with an hTRPA1 expression vector, an hTRPV1 expression vector or an hTRPM8 expression vector by use of Lipofectamine LTX (Invitrogen) in accordance with a manual.
To Dulbecco's modified Eagle medium (DMEM, Nacalai Tesque Inc.) containing 10% fetal bovine serum (FBS, Cytiva), hygromycin B and blasticidin S were added so as to have a concentration of […] and 5 μg/ml, respectively. In this manner, a drug selection medium was prepared. Twenty-four hours after completion of transfection, the medium of the above cells was exchanged with the drug selection medium, and thereafter, the cells were cultured for 7 days while exchanging the medium with a fresh medium every two days. Living cells were subcultured and regarded as hTRPA1 stably expressing cell line, hTRPV1 stably expressing cell line and hTRPM8 stably expressing cell line, respectively.
The day before assay, cells of the individual expressing cell lines were removed from the medium with a trypsin/EDTA solution and seeded in the wells of a 96-well black-well plate with a clear bottom so as to obtain a cell density of 5×10^4 cells to 6×10^4 cells/well. At this time, tetracycline was added to the medium so as to obtain a concentration of 1 μg/ml to induce expression of hTRPA1, hTRPV1 or hTRPM8. Culture was carried out in an incubator at 37° C. for 24 hours to 48 hours and then cells were washed with PBS. After PBS was removed from the wells, 50 μl of a calcium fluorescent indicator, Calbryte 520 AM (AAT, Bioquest), which was prepared by dissolving CaCl2 dihydrate, HEPES, BSA in an assay buffer HBSS (−) (solution prepared by adding so as to obtain a final concentration of 1 mM, 20 mM and 0.1%, respectively), so as to obtain a concentration of 4 μM, was added, to the wells and incubated at 33° C. for 45 minutes. Thereafter, the cells were again washed with the assay buffer and then 100 μl was allowed to remain in the wells to prepare cells for assay. A solution of a test substance for evaluating TRP channel agonist activity and having a concentration twice as large as the concentration for measurement was prepared within the wells of the 96-well plate and used within 30 minutes after preparation. The cells to be subjected to assay were incubated at 31° C. and a test substance solution (100 μl) was added to the cells for assay by use of Flaxstation3 (Molecular Devices) and fluorescence intensity (excitation wavelength: 490 nm, fluorescence wavelength: 525 nm) was measured every 2 seconds up to 120 seconds. Thirty seconds after initiation of measurement, the (test substance) solution was added to the cells for assay such that a final concentration of the test substance becomes a concentration for measurement.
TRP channel activation ability of a test substance was calculated as a relative value based on the activation ability of 10 μM ionomycin to each of TRP channels, in accordance with the following calculation formula. […]

[2] = Solubility of isolated oxylipin compounds (physicochemical properties); details: solvents listed for the isolated compound
[3] = in the presence of 1 μM A-967079 (TRPA1 antagonist)

Compound	TRPA1 activation ability (human TRPA1; [3])	action to promote release of adrenomedullin from the intestinal epithelial cells, with a TRPA1 antagonist ([1]; TRPA1 antagonist added)	release of adrenomedullin from the intestinal epithelial cells [1]	TRPA1 activation ability (human TRPA1; in the absence of A-967079)	Solubility [2]
CCCCC/C=C/C(=O)CCc1ccc(O)c(OC)c1 [Compound 6-shogaol, 6-shogaol]	–	inhibited by a TRPA1 antagonist	have an action to promote release of adrenomedullin from the intestinal epithelial cells	–	–
CC/C=C\C/C=C\C=C\C(O)CCCCCCCC(=O)O (stereo not shown) [Compound R3, (10E,12Z,15Z)-9-hydroxy-10,12,15-octadecatrienoic acid]	did not show TRPA1 activation ability	–	–	showed TRPA1 activation ability in the absence of A-967079 in a concentration dependent manner	ethanol, methanol, acetonitrile, ethyl acetate, chloroform

Further lines, with some results ahead:

TRPA1 activation ability (human TRPA1; [3])	Compound	action to promote release of adrenomedullin from the intestinal epithelial cells, with a TRPA1 antagonist ([1]; TRPA1 antagonist added)	release of adrenomedullin from the intestinal epithelial cells [1]	TRPA1 activation ability (human TRPA1; in the absence of A-967079)	Solubility [2]
did not show TRPA1 activation ability	CC/C=C/CC(O)/C=C/C=C\CCCCCCCC(=O)O (stereo not shown) [Compound R1-2, (9Z,11E,15E)-13-hydroxy-9,11,15-octadecatrienoic acid]	–	–	showed TRPA1 activation ability in the absence of A-967079 in a concentration dependent manner	ethanol, methanol, acetonitrile, chloroform
did not show TRPA1 activation ability	CCC(O)/C=C/C=C\C/C=C\CCCCCCCC(=O)O (stereo not shown) [Compound R2-2, (9Z,12Z,14E)-16-hydroxy-9,12,14-octadecatrienoic acid]	–	–	showed TRPA1 activation ability in the absence of A-967079 in a concentration dependent manner	ethanol, methanol, acetonitrile, ethyl acetate, chloroform
did not show TRPA1 activation ability	(7Z,13E,15Z)-12-hydroxy-7,13,15-octadecatrienoic acid and (9Z,13E,15Z)-12-hydroxy-9,13,15-octadecatrienoic acid [Compound R2-1]	–	–	showed TRPA1 activation ability in the absence of A-967079 in a concentration dependent manner	–
